The text below walks through data of patent US6150126A, “Daphnia reproductive bioassay for testing toxicity of aqueous samples and presence of an endocrine disrupter” (Wisconsin Alumni Research Foundation, priority 1998, dated 2000).

For one data set, the system named is retinoid X receptors. To be noted: cited from earlier work.
Data set [1] relates to Daphnia galeata mendotae Wingra CDF-1 clone. Conditions: in vivo.
Data set [2] deals with Daphnia galeata mendotae (CDF-1 clone). Conditions: in vivo.
In a further data set the test system is vertebrate systems. To be noted: cited from earlier work.
The test system of data set [3] is Daphnia. Conditions: in vivo; cited from earlier work.
In data set [4] the test system is Daphnia. To be noted: in vivo; cited from earlier work. This is another data set of the same source.
Data set [5] concerns Daphnia. Conditions: in vivo, cited from earlier work.
A further data set has as its system Daphnia carinata. To be noted: in vivo; cited from earlier work.
Data set [6] has as its system Daphnia galeata-mendotae (clone CDF-1). Conditions: in vivo.
Data set [7] relates to Daphnia. To be noted: in vivo, 48 h.
Another data set deals with fish, mammals and birds. To be noted: cited from earlier work.
Data set [8] deals with D. magna. To be noted: daphnia, in vivo, cited from earlier work.
The subject of data set [9] is D. magna. To be noted: daphnia, in vivo; cited from earlier work.
In data set [10] the test system is Daphnia. Conditions: in vivo; cited from earlier work. This is another data set of the same source.

Read-outs that look alike come from different tables or passages of the source.

Regarding `COC(C)(C)CCC[C@H](C)C/C=C/C(C)=C/C(=O)OC(C)C` (racemic) [methoprene], in the data set on retinoid X receptors, the “Gene transcription in mammals via retinoid X receptors” value is “can stimulate gene transcription in mammals by activating retinoid X receptors”.

Take `ClC1=C(Cl)[C@]2(Cl)[C@@H]3[C@@H]4C[C@@H]([C@H]5O[C@@H]45)[C@@H]3[C@@]1(Cl)C2(Cl)Cl` [Dieldrin, dieldrin]: the “Effect versus controls (sex ratio, males)” value in data set [1] is given as “no difference”. In addition, in data set [2] (daphnia), the “Concentration of no effect on sex ratio / above which sex ratio is reduced” value is recorded as “about 30 ppb” and the “X intercept of regression line of sex ratio index vs log dieldrin” value is recorded as 31 ppb. For the same compound, in data set [2], the “Adult survival or clutch size, effect” value is reported as “Neither insecticide significantly affected adult survival or clutch size”; the Endocrine disruption activity result is “shows endocrine disruption activity in Daphnia”; the Morphological abnormalities entry is “Neither insecticide caused morphological abnormalities”; the “Regression line, sex ratio index (Y) vs log ppb dieldrin (X)” value was “Y=-0.0195X+0.299”. Besides, in the data set on vertebrate systems, the Estrogenicity result is “weakly estrogenic”. Besides, the “Concentration below which little or no effect on population growth rate” value in the data set on Daphnia [3] is on record as “about 220 ppb”. In addition, the “Effect on sex ratio” value with Daphnia [4] is “no effect of dieldrin on sex ratio”.

Consider `O=S1OCC2C(CO1)C1(Cl)C(Cl)=C(Cl)C2(Cl)C1(Cl)Cl` (stereo not drawn) [Endosulfan, endosulfan], for which the “Effect versus controls (sex ratio, males)” value in data set [1] was “a tendency for a reduction of males”. In data set [2], the “Adult survival or clutch size, effect” value is “Neither insecticide significantly affected adult survival or clutch size”; the Morphological abnormalities entry is “Neither insecticide caused morphological abnormalities”; the “Sex ratio, effect” value is listed as “No endosulfan effect was observed”. In addition, the Estrogenicity result with vertebrate systems was “weakly estrogenic”. Moreover, the “Lowest concentration with reported morphological changes” value in the data set with Daphnia [5] (daphnia) is listed as 0.1 μgL^-1. In the data set on Daphnia [5], the “Concentration affecting Daphnia population growth” value was “about 120 ppb”; the “Concentration reducing filtration and assimilation rates” value is 440-600 ppb. For the same compound, the “Concentrations reducing body length and weight, egg mass and brood size” value with Daphnia carinata is recorded as 40-160 ppb.

For nonylphenol, in data set [6], the “Live young with deformity” value is listed as 11%, the “Population growth rate r” value is recorded as “nonlinear pattern” and the Survival result is “low survival”. In the data set with Daphnia [7], this compound had a Mortality of 100%. In addition, the Estrogenicity entry in the data set on fish, mammals and birds was “estrogenic to fish, mammals and birds”. Besides, the “Chronic LC50” value in the data set on D. magna [8] (168 h) is 0.12 µg/mL. Besides, in the data set on D. magna [8] (336 h), the “Chronic LC50” value was 0.12 µg/mL. In the data set with D. magna [8] (504 h), the “Chronic LC50” value was 0.1 µg/mL. The “No-observed effect concentration (NOEC)” value with D. magna [9] is recorded as 24 μgL-L^-1. In addition, in the data set with Daphnia [10], the Developmental deformity result was “cause a characteristic deformity”.
